BindingDB's records for PubMed 8386236 (Whitby Research, 1993)

Experiments:
Adenosine receptor A2b = target: T1, Adenosine receptor A2b (Bos taurus, UniProt Q1LZD0)
T1 sequence (Q1LZD0 whole entry): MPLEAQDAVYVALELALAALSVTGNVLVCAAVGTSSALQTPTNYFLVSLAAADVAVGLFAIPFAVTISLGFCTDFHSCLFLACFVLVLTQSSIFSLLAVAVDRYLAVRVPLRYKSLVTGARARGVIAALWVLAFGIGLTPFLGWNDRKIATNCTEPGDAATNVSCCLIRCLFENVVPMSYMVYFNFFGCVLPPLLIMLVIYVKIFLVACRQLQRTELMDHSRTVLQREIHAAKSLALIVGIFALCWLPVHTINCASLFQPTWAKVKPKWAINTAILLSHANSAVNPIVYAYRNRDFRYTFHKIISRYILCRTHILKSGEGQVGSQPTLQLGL

Adenosine receptor A2a = Adenosine receptor A2a (Cavia porcellus, UniProt P46616)
Adenosine receptor A1 [1] = target: T2, Adenosine receptor A1 (Bos taurus, UniProt P28190)
T2 sequence (P28190 whole entry): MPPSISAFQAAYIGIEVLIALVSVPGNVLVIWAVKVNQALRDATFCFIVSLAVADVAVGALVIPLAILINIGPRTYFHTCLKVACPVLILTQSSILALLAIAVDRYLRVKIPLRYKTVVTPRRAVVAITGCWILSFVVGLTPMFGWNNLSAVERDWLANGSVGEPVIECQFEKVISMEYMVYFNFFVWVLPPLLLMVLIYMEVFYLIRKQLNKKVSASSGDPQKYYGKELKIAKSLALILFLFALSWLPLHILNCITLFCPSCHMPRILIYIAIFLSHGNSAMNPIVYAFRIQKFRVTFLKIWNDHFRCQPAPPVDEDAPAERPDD

Adenosine receptor A1 [2] = target: T3, Adenosine receptor A1 (Cavia porcellus, UniProt P47745)
T3 sequence (P47745 whole entry): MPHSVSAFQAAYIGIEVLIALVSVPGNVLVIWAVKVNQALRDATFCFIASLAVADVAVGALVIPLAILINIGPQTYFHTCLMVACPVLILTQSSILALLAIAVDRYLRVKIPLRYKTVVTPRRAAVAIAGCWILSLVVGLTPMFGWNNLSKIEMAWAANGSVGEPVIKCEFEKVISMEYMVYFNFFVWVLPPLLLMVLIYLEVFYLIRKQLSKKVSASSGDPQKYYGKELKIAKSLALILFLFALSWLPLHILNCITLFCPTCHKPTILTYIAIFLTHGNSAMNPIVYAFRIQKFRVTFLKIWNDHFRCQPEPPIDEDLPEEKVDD

Sequence of Adenosine receptor A2a (P46616 whole entry): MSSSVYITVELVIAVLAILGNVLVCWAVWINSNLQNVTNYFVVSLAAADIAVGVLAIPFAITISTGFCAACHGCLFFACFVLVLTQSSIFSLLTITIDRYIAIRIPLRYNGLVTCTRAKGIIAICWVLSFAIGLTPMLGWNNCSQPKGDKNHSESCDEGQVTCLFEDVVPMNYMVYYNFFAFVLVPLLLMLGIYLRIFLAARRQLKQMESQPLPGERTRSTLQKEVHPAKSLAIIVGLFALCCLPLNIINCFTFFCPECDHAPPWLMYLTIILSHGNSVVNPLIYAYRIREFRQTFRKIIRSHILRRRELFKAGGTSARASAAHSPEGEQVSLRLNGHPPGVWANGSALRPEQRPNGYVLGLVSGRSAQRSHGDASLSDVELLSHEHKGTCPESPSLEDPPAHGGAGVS

Row | Ki (Adenosine receptor A2b) | Ki (Adenosine receptor A2a) | Ki (Adenosine receptor A1 [1]) | Ki (Adenosine receptor A1 [2]) | SMILES
1 | 6920 nM | > 10000 nM |  |  | Nc1nc(Cl)nc2c1ncn2[C@@H]1O[C@H](CO)[C@@H](O)[C@H]1O [2-CI Adenosine]
2 |  |  | 18.2 nM | 1950 nM | CC(Cc1ccccc1)Nc1ncnc2c1ncn2C1OC(CO)C(O)C1O (centres undefined) [R-N6-(2-phenylisopropyl) adenosine]
